Assays:
[1] = target: T1, γ-secretase (Homo sapiens, UniProt P49768); experiment: 1536-well format ALPHA-based γ-secretase assay, control validation; format: biochemical; conditions: low control: 250 nM Compound E, 1% DMSO, full 1536-well plate
T1 construct: endogenous in cells; host or cells: HEK293 cells transiently transfected with myc-tagged N1-ΔE (substrate only)
Method: Based on the 384-well assay format described above, to the assay was miniaturized to a 1536-well format for automated high-throughput drug screening. Concentrations of SM320, protein A conjugated acceptor beads and streptavidin conjugated donor beads were titrated to minimize reagent usage. […] The assay was validated by comparing the high and low control signals from full 1536-well plates. The high controls contained 1% final DMSO concentration (v/v), while the low controls contains 250 nM of Compound E also at 1% final DMSO concentration (v/v).

[2] = target: T1, γ-secretase; experiment: Cell-based Notch cleavage assay, western blot with SM320, HEK293 cells transfected with N1-ΔE; conditions: 1 μM inhibitor, 48 hours
Method: HEK293 cells were seeded in a 24-well plate and transfected with either truncated Notch1-ΔE construct (N1-ΔE) (gift from Dr. Raphael Kopan, Washington University School of Medicine, St. Louis, Mo.; (see Supplemental FIG. 1A of van Tetering et al., 2009, J. Biol. Chem., 284:31018-31027, for a diagram of N1-ΔE)) including cmyc (24), or empty pcDNA3.1 (−) (Invitrogen), using Fugene 6 transfection reagents (Roche). N1-ΔE includes the replete intracellular sequence, the transmembrane domain, and a truncated extracellular portion lacking LNR and the EGF repeat sequences (see Supplemental FIG. 1A of van Tetering et al., 2009, J. Biol. Chem., 284:31018-31027). […] The proteins were transferred to PVDF membrane (Millipore) using a semi-dry transfer emit (Bio-Rad) and analyzed by western blot with anti-myc antibody (prepared at Memorial Sloan-Kettering Cancer Center) and SM320 antibody.
HEK 293 cells were transiently transfected with truncated Notch1-ΔE construct including cmyc (N1-ΔE), a substrate of γ-secretase that is independent of ligand activation, as described in Experimental Methods. […] Cell lysates were analyzed by performing SDS-PAGE and immunoblotting the result with anti-myc and SM320 antibody (FIG. 6A). […] N1-ΔE was detected only in cells transfected with this construct (FIG. 6A, upper panel, lanes 1 and 2) but not in the mock transfected cells (FIG. 6A, upper panel, lane 3).

[3] = target: T2, WT PS1 NTF (γ-secretase active site) (Homo sapiens, UniProt P49768); experiment: Photolabeling of PS1 NTF, N2a wild-type PS1 membrane; format: binding, murine; conditions: probes 10 nM, 0.25% CHAPSO, normalized to JC8, excess L458 as competitor
T2 construct: total membrane
Method: (§1) Total cell membrane was pre-incubated in the presence of DMSO or 1 μM L458 in PIPES buffer containing 0.25% CHAPSO at 37° C. for 30 minutes. Then, photolabeling probes (JC8, L646 or GY4) (Li et al., 2000, Nature, 405:689-694, Chun et al., 2004, J Org. Chem., 69:7344-7347, Yang et al., 2009, Bioorg Med Chem. Lett., 19:922-925) at 10 nM were added and incubated for an additional 1 hour at 37° C. The reaction mixtures were irradiated at 350 nm for 45 minutes and solubilize with RIPA buffer. Biotinylated proteins in the soluble fraction were captured by Streptavidin resin (Pierce) overnight at 4° C. Bound proteins were eluted by boiling with SDS sample buffer and analyzed by western blotting with anti-PS1 NTF antibodies.
(§2) L646, GY4 and JC8, which photolabel the S2, S1, and S1′ subsites within the active site of PS1, respectively, were used for this study (FIG. 10b). Membranes isolated from N2a cells stably expressing wild-type (WT), M146L, or E280A PS1 were photolabeled with JC8, GY4 or L646 in the presence of 0.25% CHAPSO. […] After […] irradiation, biotinylated proteins were isolated with streptavidin beads and analyzed by western blotting with anti-PS1 NTF antibodies. […] To eliminate the effect of various amounts of γ-secretase existing in different cell lines, we normalized each probe with JC8 labeling in the same cell lines.

[4] = target: T3, E280A PS1 NTF (γ-secretase active site) (Homo sapiens, UniProt P49768, E280A); experiment: Photolabeling of PS1 NTF, N2a E280A PS1 membrane; format: binding, murine; conditions: probes 10 nM, 0.25% CHAPSO, normalized to JC8, excess L458 as competitor
T3 construct: total membrane
Method: as §1, §2

[5] = target: T4, M146L PS1 NTF (γ-secretase active site) (Homo sapiens, UniProt P49768, M146L); experiment: Photolabeling of PS1 NTF, N2a M146L PS1 membrane; format: binding, murine; conditions: probes 10 nM, 0.25% CHAPSO, normalized to JC8, excess L458 as competitor
T4 construct: total membrane
Method: as §1, §2

Row | Photolabeling of PS1 NTF (western blot) [3] | Photolabeling of PS1 NTF (western blot) [4] | Photolabeling of PS1 NTF (western blot) [5] | Compound | Average (ALPHA signal) [1] | detection of cleaved NICD band by SM320 (western blot) [2]
1 | – | – | – | CC(NC(=O)Cc1cc(F)cc(F)c1)C(=O)NC1N=C(c2ccccc2)c2ccccc2N(C)C1=O (centres unmarked) [Compound E] | 319 | not in the Compound E-treated cells
2 | completely prevented labeling | completely prevented labeling | completely prevented labeling | CC(C)C[C@H](NC(=O)[C@H](Cc1ccccc1)C[C@@H](O)[C@H](Cc1ccccc1)NC(=O)OC(C)(C)C)C(=O)N[C@@H](Cc1ccccc1)C(N)=O [L458] | – | –
